Results reported in PubChem BioAssay (NCI).
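Where inhibition never reached the appropriate level, the endpoint shown equals the highest concentration tested. Otherwise, values were interpolated linearly from a five-concentration, 48-hour dose response in 96-well plates. GI50 = concentration required for 50% inhibition of growth. TGI: total growth inhibition.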

Columns and labels:
Experiment in all cases: NCI tumour cell line growth inhibition, 48 h
[1] = test system: SK-OV-3 ovarian
[2] = test system: HS 578T breast
[3] = test system: OVCAR-5 ovarian
[4] = test system: M14 melanoma
[5] = test system: CCRF-CEM leukemia
[6] = test system: OVCAR-3 ovarian
[7] = test system: U251 CNS
[8] = test system: T-47D breast
[9] = test system: NCI-H226 lung
[10] = test system: NCI-H23 lung

| SMILES | GI50 [1] [µM] | TGI [1] [µM] | GI50 [2] [µM] | TGI [2] [µM] | GI50 [3] [µM] | TGI [3] [µM] | GI50 [4] [µM] | TGI [4] [µM] | GI50 [5] [µM] | TGI [5] [µM] | GI50 [6] [µM] | TGI [6] [µM] | GI50 [7] [µM] | TGI [7] [µM] | GI50 [8] [µM] | TGI [8] [µM] | GI50 [9] [µM] | TGI [9] [µM] | GI50 [10] [µM] | TGI [10] [µM] |
| --- | --- | --- | --- | --- | --- | --- | --- | --- | --- | --- | --- | --- | --- | --- | --- | --- | --- | --- | --- | --- |
| COc1ccc(OC)c2c3c(ncc12)-c1cc2c(cc1C3)OCO2 | > 100 | > 100 | 7.01 | 62.1 | > 100 | > 100 | 0.316 | > 100 | > 100 | > 100 | 26.9 | > 100 | 0.209 | 3.31 | > 100 | > 100 | – | – | – | – |
| CCC1=C[C@H]2CN(CCc3c([nH]c4ccccc34)[C@@](C(=O)OC)(c3cc4c(cc3OC)N(C)[C@H]3[C@@](O)(C(=O)OC)[C@H](OC(C)=O)[C@]5(CC)[C@@H]6C[C@@H]6CN6CC[C@]43[C@@H]65)C2)C1 | 0.0358 | 12.2 | 0.053 | 4.16 | 0.126 | 13.1 | 0.0264 | 0.156 | 0.0495 | 4.48 | 0.0105 | 2.59 | 0.0309 | 3.22 | – | – | 2.65 | 10.3 | 0.121 | > 25 |
| C[C@H]1[C@H](C)CC[C@]2(C(=O)O)CC[C@]3(C)C(=CC[C@@H]4[C@@]5(C)CC[C@H](OC(=O)/C=C\c6ccc(O)cc6)C(C)(C)[C@@H]5CC[C@]43C)[C@H]12 | 11.9 | 26.5 | 3.1 | 22.6 | 12.3 | 27 | – | – | – | – | 3.05 | 21.2 | 2 | 9.41 | – | – | 4.55 | 26.3 | 3.48 | 15.9 |
| CNC(=S)N/N=C(/C)CCC/C(C)=N/NC(=S)NC | – | > 100 | – | > 100 | – | > 100 | – | > 100 | – | – | – | > 93.2 | – | > 100 | – | > 100 | – | > 100 | – | > 100 |
| COc1ccc2c(c1)CC[C@@H]1[C@@H]2CC[C@]2(C)c3c(cc(C(=O)c4ccccc4)c4sccc34)C[C@@H]12 | > 100 | > 100 | > 100 | > 100 | 60.7 | > 100 | 75.4 | > 100 | > 100 | > 100 | > 100 | > 100 | > 100 | > 100 | – | – | > 100 | > 100 | > 100 | > 100 |
| O=C(Nc1ncc(Cc2ccc(Cl)cc2)s1)c1ccc2c(c1)OCCO2 | 0.183 | 92.9 | 0.0422 | 8.65 | 0.266 | > 100 | 0.0409 | 75.3 | 0.0639 | > 100 | 0.0335 | 0.398 | 0.0549 | > 45.3 | – | – | 0.358 | – | 0.298 | > 100 |
| C#CCOc1c(OC)cc(C(=O)/C(C)=C/c2cccc(N=[N+]=[N-])c2)cc1OC | 0.674 | > 100 | 0.25 | > 100 | 1.23 | > 100 | 0.178 | > 100 | 0.117 | > 100 | 0.0519 | 0.291 | 0.0793 | > 100 | – | – | 15 | > 100 | 0.632 | > 100 |
| C#Cc1ccc(-n2c(/C=C/c3ccc4ccccc4n3)nc3ncccc3c2=O)cc1 | 0.351 | 1.08 | – | – | – | – | – | – | – | – | 0.317 | 0.905 | 0.419 | 1.59 | 0.366 | 1.28 | 0.408 | 1.37 | 0.774 | 2.32 |
| [O-][N+]1=C(c2ccccc2)COc2ccccc21 | – | > 100 | – | – | – | > 100 | – | > 100 | – | > 100 | – | > 100 | – | > 100 | – | – | – | > 100 | – | > 100 |
| NS(=O)(=O)c1ccc(NCc2cnc3ccccc3c2)cc1 | – | > 100 | – | > 100 | – | > 100 | – | > 100 | – | – | – | > 100 | – | > 100 | – | > 100 | – | > 100 | – | > 100 |
| Cc1cc2c(=O)cc(-c3ccc(C(=O)O)cc3)oc2c(C(=O)O)c1C | – | > 100 | – | – | – | > 100 | – | > 100 | – | > 100 | – | > 100 | – | > 100 | – | – | – | > 100 | – | > 100 |
| COC(C(=O)[C@@H](O)[C@@H](C)O)[C@@H]1Cc2cc3cc(O[C@H]4C[C@@H](O[C@H]5C[C@@H](O)[C@H](O)C(C)O5)[C@H](O)C(C)O4)c(C)c(O)c3c(O)c2C(=O)[C@H]1O[C@H]1C[C@@H](O[C@H]2C[C@@H](O[C@H]3C[C@@H](O)[C@@H](O)C(C)O3)[C@@H](O)C(C)O2)[C@H](O)C(C)O1 (stereo not given in full) | 0.422 | > 32.5 | 0.126 | 12.3 | 0.485 | > 32.5 | 0.633 | 7.61 | 1.84 | > 32.5 | 0.232 | 8.76 | 0.121 | > 32.5 | 0.106 | > 32.5 | – | – | 0.242 | 9.05 |
